From US9895377B2, “Solid forms of tyrosine kinase inhibitors, process for the preparation and their pharmaceutical composition thereof” (LAURUS LABS LIMITED, priority 2012, dated 2018)

Experiment: delta pKa difference between tyrosine kinase inhibitor and anti-oxidative acids
Assay type: physicochemical
Details: between the tyrosine kinase inhibitor and anti-oxidative acids; more than 3 = salt, less than 3 = co-crystal (FDA draft guidelines)

delta pKa difference	Structure (SMILES)
less than 3	COc1cc2ncnc(Nc3ccc(F)c(Cl)c3)c2cc1OCCCN1CCOCC1 [gefitinib, Gefitinib]
more than 3	Cc1ccc(NC(=O)c2ccc(CN3CCN(C)CC3)cc2)cc1Nc1nccc(-c2cccnc2)n1 [imatinib, Imatinib]
